In ChEMBL document CHEMBL1201862, “PubChem BioAssay data set” (2004):
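Five concentrations, 48 hours, 96-well plates. GI50 = concentration required for 50% inhibition of growth.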 Calls of active or inactive are those of the source. No stated cut-off is given here; in the data, active = GI50 up to about 1.1 µM and inactive = higher.

Key:
Assay in all cases: inhibition of tumour cell growth, NCI panel, 48 h
NCI-H226 = test system: NCI-H226
MOLT-4 = test system: MOLT-4
SF-268 = test system: SF-268
OVCAR-8 = test system: OVCAR-8
A498 = test system: A498
NCI-H522 = test system: NCI-H522
U-251 = test system: U-251
SK-OV-3 = test system: SK-OV-3
SF-539 = test system: SF-539
SR = test system: SR
SNB-75 = test system: SNB-75
DLD-1 = test system: DLD-1
UACC-257 = test system: UACC-257
HOP-62 = test system: HOP-62
SK-MEL-2 = test system: SK-MEL-2
CAKI-1 = test system: CAKI-1

Measured: GI50

CCN(CC)C(=O)c1c(Cl)cc(N(CC)CC)oc1=O
inactive: NCI-H226 > 100 µM | MOLT-4 > 100 µM | SF-268 > 100 µM | OVCAR-8 > 100 µM | A498 > 100 µM | NCI-H522 > 100 µM | U-251 > 100 µM | SK-OV-3 > 100 µM | SF-539 > 100 µM | SR > 100 µM | SNB-75 > 100 µM | DLD-1 > 100 µM | UACC-257 > 100 µM | HOP-62 > 100 µM | SK-MEL-2 > 100 µM

COc1ccc(OC)c(NC(=O)C(=O)CC(=O)c2sc(-n3nc(-c4ccccc4)cc3-c3ccccc3)nc2C)c1
inactive: NCI-H226 > 100 µM | MOLT-4 > 100 µM | OVCAR-8 > 100 µM | A498 > 100 µM | NCI-H522 > 100 µM | U-251 > 100 µM | SK-OV-3 > 100 µM | SF-539 > 100 µM | SR 27.7 µM | SNB-75 > 100 µM | DLD-1 > 100 µM | UACC-257 > 100 µM | CAKI-1 > 100 µM | HOP-62 > 100 µM | SK-MEL-2 > 100 µM

CC(C)(C)C(=O)OCC(COC(=O)C(C)(C)C)[N+](=O)[O-]
inactive: NCI-H226 > 100 µM | MOLT-4 80.2 µM | SF-268 > 100 µM | OVCAR-8 > 100 µM | NCI-H522 19.1 µM | U-251 > 100 µM | SK-OV-3 > 100 µM | SF-539 > 100 µM | SR 42.4 µM | SNB-75 > 100 µM | DLD-1 > 100 µM | UACC-257 > 100 µM | CAKI-1 > 100 µM | SK-MEL-2 > 100 µM

C[C@]12CC[C@@H]3c4ccccc4CC[C@H]3[C@@H]1CC[C@@H]2O
inactive: MOLT-4 45.5 µM | SF-268 > 100 µM | OVCAR-8 > 100 µM | NCI-H522 49.2 µM | U-251 > 100 µM | SK-OV-3 > 100 µM | SF-539 43.1 µM | SR 56.1 µM | SNB-75 54.7 µM | DLD-1 72.6 µM | UACC-257 > 100 µM | HOP-62 > 100 µM

COC1(OC)CC2C(=O)N(Cc3ccccc3)C1C=C2S(=O)(=O)c1ccccc1 (configuration not stated)
inactive: NCI-H226 27.9 µM | MOLT-4 16.5 µM | SF-268 37 µM | OVCAR-8 17.9 µM | A498 20 µM | NCI-H522 13.9 µM | U-251 15.5 µM | SK-OV-3 47.5 µM | SF-539 17 µM | SR 15 µM | SNB-75 28.8 µM | DLD-1 12.7 µM | UACC-257 16.9 µM | HOP-62 38.8 µM

O=C(NCc1ccncc1)C1COc2cc(-c3cc(=O)c4ccccc4o3)ccc2O1 (configuration not stated)
inactive: MOLT-4 > 100 µM | OVCAR-8 > 100 µM | NCI-H522 > 100 µM | U-251 > 100 µM | SK-OV-3 > 100 µM | SF-539 > 100 µM | SR > 100 µM | SNB-75 38.1 µM | DLD-1 > 100 µM | UACC-257 > 100 µM | HOP-62 > 100 µM | SK-MEL-2 > 100 µM

O=C1c2ccccc2C2(O)c3cc4ccccc4cc3OC12O (configuration not stated)
inactive: NCI-H226 42.4 µM | MOLT-4 37.7 µM | SF-268 87.7 µM | OVCAR-8 58.1 µM | A498 > 100 µM | NCI-H522 40.9 µM | U-251 54.7 µM | SK-OV-3 > 100 µM | SF-539 > 100 µM | SNB-75 49.3 µM | DLD-1 > 100 µM | UACC-257 30 µM | CAKI-1 62.7 µM | HOP-62 83.8 µM | SK-MEL-2 47.3 µM

CCSC(SCC)c1cc2c(cc1Br)OCO2
inactive: NCI-H226 24.2 µM | MOLT-4 11.9 µM | SF-268 35 µM | OVCAR-8 31.3 µM | A498 25.8 µM | NCI-H522 24 µM | U-251 17 µM | SK-OV-3 25.2 µM | SF-539 16.1 µM | SNB-75 18.8 µM | DLD-1 41 µM | HOP-62 60.3 µM | SK-MEL-2 18.9 µM

CC(=O)OCC1OC(n2c(-c3ccc(N)cc3)cc(-c3ccco3)c(C#N)c2=O)C(OC(C)=O)C(OC(C)=O)C1OC(C)=O (configuration not stated)
inactive: MOLT-4 > 50 µM | SF-268 11.5 µM | OVCAR-8 5.87 µM | A498 > 50 µM | NCI-H522 8.17 µM | U-251 7.06 µM | SK-OV-3 > 50 µM | SF-539 7.62 µM | SR > 50 µM | SNB-75 > 50 µM | DLD-1 > 50 µM | UACC-257 > 50 µM | CAKI-1 > 50 µM | HOP-62 > 50 µM | SK-MEL-2 22.4 µM

CCOc1ccccc1NC(=O)C(=O)CC(=O)c1sc(Nc2nnc(-c3ccc(Cl)c(Cl)c3)o2)nc1C
inactive: NCI-H226 > 100 µM | MOLT-4 > 100 µM | SF-268 > 100 µM | OVCAR-8 > 100 µM | A498 > 100 µM | U-251 18.8 µM | SK-OV-3 > 100 µM | SF-539 > 100 µM | SR > 100 µM | SNB-75 > 100 µM | DLD-1 88.7 µM | UACC-257 98.9 µM | CAKI-1 > 100 µM | HOP-62 > 100 µM | SK-MEL-2 > 100 µM

CC(C)(C)c1ccc2c(c1)S(=O)(=O)Nc1ccccc1NS(=O)(=O)c1cc(C(C)(C)C)ccc1OCCOCCOCCO2
inactive: NCI-H226 > 100 µM | MOLT-4 > 100 µM | SF-268 48.4 µM | OVCAR-8 70 µM | A498 52.5 µM | U-251 88.5 µM | SK-OV-3 81.1 µM | SF-539 40 µM | SNB-75 39.2 µM | DLD-1 > 100 µM | UACC-257 > 100 µM | CAKI-1 97.9 µM | HOP-62 > 100 µM | SK-MEL-2 > 100 µM

CC(=O)NN1C(=O)C(Cc2ccccc2)c2ccccc21 (configuration not stated)
inactive: NCI-H226 > 100 µM | MOLT-4 > 100 µM | SF-268 > 100 µM | OVCAR-8 > 100 µM | A498 > 100 µM | U-251 > 100 µM | SK-OV-3 > 100 µM | SF-539 > 100 µM | SNB-75 > 100 µM | DLD-1 > 100 µM | UACC-257 > 100 µM | CAKI-1 > 100 µM | HOP-62 > 100 µM | SK-MEL-2 > 100 µM

CC1(C2COC(=O)C2)SCCCS1 (configuration not stated)
inactive: NCI-H226 > 100 µM | MOLT-4 > 100 µM | SF-268 > 100 µM | OVCAR-8 > 100 µM | NCI-H522 2.79 µM | SK-OV-3 53.8 µM | SF-539 > 100 µM | SR > 100 µM | SNB-75 > 100 µM | DLD-1 > 100 µM | UACC-257 > 100 µM | CAKI-1 > 100 µM | HOP-62 > 100 µM | SK-MEL-2 > 100 µM

CCCCCCCCCCCC(=O)OCCOCCOCCOCCOCCOCc1ccc(OC)cc1
inactive: NCI-H226 > 100 µM | MOLT-4 73.6 µM | SF-268 > 100 µM | OVCAR-8 > 100 µM | A498 > 100 µM | NCI-H522 > 100 µM | U-251 > 100 µM | SK-OV-3 > 100 µM | SR > 100 µM | SNB-75 > 100 µM | DLD-1 > 100 µM | UACC-257 > 100 µM | CAKI-1 > 100 µM | HOP-62 > 100 µM | SK-MEL-2 > 100 µM
